Reference: ChEMBL document CHEMBL1201862, “PubChem BioAssay data set” (2004)
Structures can show the parent of a compound that is named as a salt. The source made the active and inactive calls.

Experiments:
Genome polyprotein = Genome polyprotein (dengue virus type 2, UniProt P29990); assay: flavivirus cap methylation enzyme inhibition – biochemical, confirmation dose response, primary screen (AID 588689); assay type: functional
[1] = target: T1, Apoptotic protease-activating factor 1 (Homo sapiens, UniProt O14727); assay type: functional
T1 sequence (O14727 whole entry): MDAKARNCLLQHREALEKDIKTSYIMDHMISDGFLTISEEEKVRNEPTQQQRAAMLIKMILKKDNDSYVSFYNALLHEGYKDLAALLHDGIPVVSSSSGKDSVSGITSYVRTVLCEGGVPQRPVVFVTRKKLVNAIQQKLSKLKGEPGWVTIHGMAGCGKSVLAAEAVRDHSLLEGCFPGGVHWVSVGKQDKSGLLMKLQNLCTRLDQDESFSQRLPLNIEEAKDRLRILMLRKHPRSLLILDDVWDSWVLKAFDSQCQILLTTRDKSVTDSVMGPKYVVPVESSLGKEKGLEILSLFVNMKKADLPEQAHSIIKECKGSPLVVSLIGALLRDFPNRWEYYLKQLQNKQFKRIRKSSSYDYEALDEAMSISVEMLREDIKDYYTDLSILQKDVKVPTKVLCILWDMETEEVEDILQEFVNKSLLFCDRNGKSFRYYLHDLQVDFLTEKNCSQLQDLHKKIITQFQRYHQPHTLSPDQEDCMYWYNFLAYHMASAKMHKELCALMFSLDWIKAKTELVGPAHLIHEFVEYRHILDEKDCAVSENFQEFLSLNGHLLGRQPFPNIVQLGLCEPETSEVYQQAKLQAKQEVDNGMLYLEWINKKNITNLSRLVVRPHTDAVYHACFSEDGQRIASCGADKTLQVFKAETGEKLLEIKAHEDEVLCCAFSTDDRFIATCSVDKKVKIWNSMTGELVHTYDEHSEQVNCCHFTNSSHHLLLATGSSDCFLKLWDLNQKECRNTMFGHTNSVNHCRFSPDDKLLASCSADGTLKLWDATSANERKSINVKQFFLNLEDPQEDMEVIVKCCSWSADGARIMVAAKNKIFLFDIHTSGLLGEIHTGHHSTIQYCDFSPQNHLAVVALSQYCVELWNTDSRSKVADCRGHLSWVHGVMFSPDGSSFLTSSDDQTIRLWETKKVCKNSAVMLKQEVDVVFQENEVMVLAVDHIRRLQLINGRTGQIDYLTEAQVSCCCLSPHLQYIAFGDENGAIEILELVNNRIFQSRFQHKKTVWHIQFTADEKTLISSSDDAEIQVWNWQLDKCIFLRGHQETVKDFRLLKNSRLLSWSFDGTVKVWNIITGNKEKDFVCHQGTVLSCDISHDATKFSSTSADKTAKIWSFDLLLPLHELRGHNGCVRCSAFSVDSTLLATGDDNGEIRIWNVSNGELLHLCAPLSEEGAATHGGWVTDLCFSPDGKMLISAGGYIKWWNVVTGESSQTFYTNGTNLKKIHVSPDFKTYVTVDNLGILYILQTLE

[2] = target: T2, DNA repair protein RAD52 homolog (Homo sapiens, UniProt P43351); assay type: functional, biochemical
T2 sequence (P43351 whole entry): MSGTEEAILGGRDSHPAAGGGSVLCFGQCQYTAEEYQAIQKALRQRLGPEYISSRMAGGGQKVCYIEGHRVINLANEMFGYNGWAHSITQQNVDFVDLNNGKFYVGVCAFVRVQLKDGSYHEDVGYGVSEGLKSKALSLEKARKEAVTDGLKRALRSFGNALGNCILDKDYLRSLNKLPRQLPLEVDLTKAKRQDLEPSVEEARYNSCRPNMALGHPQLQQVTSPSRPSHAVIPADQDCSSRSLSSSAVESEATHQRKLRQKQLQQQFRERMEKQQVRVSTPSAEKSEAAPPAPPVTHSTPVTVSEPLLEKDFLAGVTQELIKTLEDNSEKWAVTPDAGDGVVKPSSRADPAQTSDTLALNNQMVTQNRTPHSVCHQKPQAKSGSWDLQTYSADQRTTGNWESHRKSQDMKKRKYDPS

[3] = blockers of HIV-1 ZM109 envelope-driven cell-cell fusion – HeLa effector, CEM target cells, luciferase, cherry-pick, dose response (AID 652058); assay type: functional, cell-based;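 further: luciferase signal from HIV-1 Env mediated cell-cell fusion of effector and target cells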
[4] = blockers of HIV-1 envelope-mediated cell-cell fusion – cherry-pick, dose response (AID 652057); assay type: functional, cell-based
[5] = off-target signal loss in HeLa-CEM21 co-culture – HeLa F-luc CTL cells, cherry-picked, counter-screen for HIV-1 Env fusion inhibitor project, dose response (AID 652040); assay type: functional, cell-based;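 further: potency for signal decrease marking cytotoxic or nonspecific inhibition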
[6] = HIV-1 AD8 envelope cell-cell fusion blockers – cherry-pick, dose response (AID 652062); assay type: functional, cell-based;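 further: luciferase signal from cell-cell fusion driven by HIV-1 clade B AD8 Env; potency is for inhibitors of fusion seen as a drop in luminescence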
[7] = target: T3, Sentrin-specific protease 8 (Homo sapiens, UniProt Q96LD8); assay type: functional
T3 sequence (Q96LD8 whole entry): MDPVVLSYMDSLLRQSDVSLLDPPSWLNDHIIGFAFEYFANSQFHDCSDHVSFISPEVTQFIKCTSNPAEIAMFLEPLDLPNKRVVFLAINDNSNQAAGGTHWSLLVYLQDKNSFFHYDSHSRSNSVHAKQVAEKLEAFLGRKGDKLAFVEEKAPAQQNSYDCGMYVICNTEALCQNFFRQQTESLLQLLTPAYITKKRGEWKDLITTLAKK

[8] = target: T3, Sentrin-specific protease 8; assay type: functional; remark: listed apart in the source
[9] = target: T4, Oxysterols receptor LXR-beta (Homo sapiens, UniProt P55055); assay: LXR agonists, Gal4 luciferase reporter, dose response, counter-screen for ssDAF-12 agonist project, cell-based, luminescence, HEK293, S. stercoralis campaign (AID 720737); assay type: functional; conditions: read-out: IC50 (the source's name)
T4 sequence (P55055 whole entry): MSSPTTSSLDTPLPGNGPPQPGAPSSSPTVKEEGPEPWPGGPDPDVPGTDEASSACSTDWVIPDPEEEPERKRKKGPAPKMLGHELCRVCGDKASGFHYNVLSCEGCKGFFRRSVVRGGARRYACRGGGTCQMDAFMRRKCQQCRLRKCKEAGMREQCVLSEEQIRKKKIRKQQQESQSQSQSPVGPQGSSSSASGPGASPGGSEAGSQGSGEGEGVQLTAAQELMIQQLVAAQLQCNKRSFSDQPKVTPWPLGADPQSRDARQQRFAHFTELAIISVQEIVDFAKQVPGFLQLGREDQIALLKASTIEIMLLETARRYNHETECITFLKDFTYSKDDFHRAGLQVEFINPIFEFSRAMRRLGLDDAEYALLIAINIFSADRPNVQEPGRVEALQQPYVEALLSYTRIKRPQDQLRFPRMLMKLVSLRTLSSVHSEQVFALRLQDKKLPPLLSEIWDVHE

[10] = Luminescence-based cell-based high throughput dose response assay to identify activators of the DAF-12 from the parasite S. stercoralis (ssDAF-12).; assay type: functional
[11] = target: T5, Probable nicotinate-nucleotide adenylyltransferase (Staphylococcus aureus (strain N315), UniProt P65502); assay type: functional, Staphylococcus aureus subsp. aureus N315;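 on IC50 Mean: confirmatory dose-response retesting of NadD inhibitor hits first found in an ultra-high-throughput screen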
T5 sequence (P65502 whole entry): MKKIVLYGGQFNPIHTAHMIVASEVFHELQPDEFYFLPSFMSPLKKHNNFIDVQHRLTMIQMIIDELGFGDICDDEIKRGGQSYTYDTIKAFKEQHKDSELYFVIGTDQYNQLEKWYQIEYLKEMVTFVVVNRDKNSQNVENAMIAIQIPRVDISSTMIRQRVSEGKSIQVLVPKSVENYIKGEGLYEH

[12] = target: T5, Probable nicotinate-nucleotide adenylyltransferase; assay type: functional, Staphylococcus aureus subsp. aureus N315; conditions: read-out: IC50_Mean
[13] = target: T6, Adenosylmethionine-8-amino-7-oxononanoate aminotransferase (Mycobacterium tuberculosis, UniProt P9WQ81); assay: Mycobacterium tuberculosis BioA enzyme inhibitor Measured in Biochemical System Using Plate Reader - 2163-02_Inhibitor_Dose_CherryPick_Activity.; assay type: functional, Mycobacterium tuberculosis UT205
T6 sequence (P9WQ81 whole entry): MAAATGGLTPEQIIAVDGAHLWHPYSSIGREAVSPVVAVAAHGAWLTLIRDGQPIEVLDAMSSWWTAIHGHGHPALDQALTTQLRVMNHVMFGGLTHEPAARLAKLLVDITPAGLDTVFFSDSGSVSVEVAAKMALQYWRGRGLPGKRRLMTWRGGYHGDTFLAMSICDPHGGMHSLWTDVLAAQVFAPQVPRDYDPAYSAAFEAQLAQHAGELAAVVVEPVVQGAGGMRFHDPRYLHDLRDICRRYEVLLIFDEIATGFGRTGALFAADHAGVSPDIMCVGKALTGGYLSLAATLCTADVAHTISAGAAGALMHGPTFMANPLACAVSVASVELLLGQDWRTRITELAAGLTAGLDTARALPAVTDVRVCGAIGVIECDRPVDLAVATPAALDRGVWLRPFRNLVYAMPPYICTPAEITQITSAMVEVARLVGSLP

[14] = target: T7, High affinity choline transporter 1 (Homo sapiens, UniProt Q9GZV3); assay: human choline transporter blockers, potency – cell-based, 5-point CRC, membrane potential dye, dose response (AID 504840); assay type: functional
T7 sequence (Q9GZV3 whole entry): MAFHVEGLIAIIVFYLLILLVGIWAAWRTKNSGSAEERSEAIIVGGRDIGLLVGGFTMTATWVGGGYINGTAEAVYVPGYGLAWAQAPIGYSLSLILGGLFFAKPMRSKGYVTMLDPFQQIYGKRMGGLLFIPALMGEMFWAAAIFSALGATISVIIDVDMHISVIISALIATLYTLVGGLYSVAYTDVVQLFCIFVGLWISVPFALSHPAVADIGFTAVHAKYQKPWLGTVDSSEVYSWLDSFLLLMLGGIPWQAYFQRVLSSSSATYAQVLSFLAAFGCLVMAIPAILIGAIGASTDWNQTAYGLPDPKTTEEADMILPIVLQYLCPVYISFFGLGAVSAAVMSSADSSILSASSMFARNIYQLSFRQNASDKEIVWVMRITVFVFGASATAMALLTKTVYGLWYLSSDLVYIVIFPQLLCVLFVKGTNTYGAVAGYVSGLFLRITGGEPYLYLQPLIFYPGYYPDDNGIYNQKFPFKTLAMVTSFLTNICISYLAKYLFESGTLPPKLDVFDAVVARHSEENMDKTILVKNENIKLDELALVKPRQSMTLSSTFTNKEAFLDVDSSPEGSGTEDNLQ

[15] = activation of miR-122 Renilla sensor silencing – cell-based, Huh7 psiCHECK-miR122, Renilla luciferase, cherry-picked, dose response (AID 651956); assay type: functional;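 further: huh7 hepatoma cells stably carrying a psiCHECK-2 miR-122 sensor plasmid; renilla luciferase signal reporting endogenous miR-122 activity after 48 h compound exposure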
Caspase-6 = target: T8, Caspase-6 (Homo sapiens, UniProt P55212); assay: inhibition of CASP6 peptide cleavage – biochemical, VEID-R110 fluorescence, cherry-pick, dose response (AID 720632)
T8 sequence (P55212 whole entry): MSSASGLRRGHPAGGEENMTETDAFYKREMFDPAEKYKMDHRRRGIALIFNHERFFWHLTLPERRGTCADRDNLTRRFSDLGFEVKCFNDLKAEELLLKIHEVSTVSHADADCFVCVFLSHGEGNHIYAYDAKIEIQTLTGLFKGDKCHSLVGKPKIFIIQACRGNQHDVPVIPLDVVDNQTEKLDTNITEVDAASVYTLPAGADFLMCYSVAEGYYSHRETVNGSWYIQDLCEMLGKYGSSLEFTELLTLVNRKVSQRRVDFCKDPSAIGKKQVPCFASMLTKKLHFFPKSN

[16] = target: FAD-linked sulfhydryl oxidase ALR (Homo sapiens, UniProt P55789); assay: ALR-catalysed DTT oxidation blockers – biochemical, H2O2 detection, luminescence, cherry-pick, dose response (AID 493248)
Chain of FAD-linked sulfhydryl oxidase ALR (P55789 whole entry): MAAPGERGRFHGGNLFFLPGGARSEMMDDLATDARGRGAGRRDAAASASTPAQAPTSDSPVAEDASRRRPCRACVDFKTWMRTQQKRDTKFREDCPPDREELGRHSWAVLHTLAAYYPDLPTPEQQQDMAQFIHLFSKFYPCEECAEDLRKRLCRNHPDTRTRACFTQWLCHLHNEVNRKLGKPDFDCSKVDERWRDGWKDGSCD

[17] = microbe, parasite or virus in culture; assay type: functional; conditions: Mycobacterium tuberculosis
[18] = viability loss of HPDE-C7K cells – cell-based, fluorescence, HTS, primary screen (AID 431); assay type: functional; conditions: Homo sapiens
[19] = HPDE-C7 pancreatic duct cell viability loss – fluorescence, HTS (AID 430); assay type: functional, cell-based; conditions: Homo sapiens

Chain of Genome polyprotein (P29990 2492-3391 limits assumed): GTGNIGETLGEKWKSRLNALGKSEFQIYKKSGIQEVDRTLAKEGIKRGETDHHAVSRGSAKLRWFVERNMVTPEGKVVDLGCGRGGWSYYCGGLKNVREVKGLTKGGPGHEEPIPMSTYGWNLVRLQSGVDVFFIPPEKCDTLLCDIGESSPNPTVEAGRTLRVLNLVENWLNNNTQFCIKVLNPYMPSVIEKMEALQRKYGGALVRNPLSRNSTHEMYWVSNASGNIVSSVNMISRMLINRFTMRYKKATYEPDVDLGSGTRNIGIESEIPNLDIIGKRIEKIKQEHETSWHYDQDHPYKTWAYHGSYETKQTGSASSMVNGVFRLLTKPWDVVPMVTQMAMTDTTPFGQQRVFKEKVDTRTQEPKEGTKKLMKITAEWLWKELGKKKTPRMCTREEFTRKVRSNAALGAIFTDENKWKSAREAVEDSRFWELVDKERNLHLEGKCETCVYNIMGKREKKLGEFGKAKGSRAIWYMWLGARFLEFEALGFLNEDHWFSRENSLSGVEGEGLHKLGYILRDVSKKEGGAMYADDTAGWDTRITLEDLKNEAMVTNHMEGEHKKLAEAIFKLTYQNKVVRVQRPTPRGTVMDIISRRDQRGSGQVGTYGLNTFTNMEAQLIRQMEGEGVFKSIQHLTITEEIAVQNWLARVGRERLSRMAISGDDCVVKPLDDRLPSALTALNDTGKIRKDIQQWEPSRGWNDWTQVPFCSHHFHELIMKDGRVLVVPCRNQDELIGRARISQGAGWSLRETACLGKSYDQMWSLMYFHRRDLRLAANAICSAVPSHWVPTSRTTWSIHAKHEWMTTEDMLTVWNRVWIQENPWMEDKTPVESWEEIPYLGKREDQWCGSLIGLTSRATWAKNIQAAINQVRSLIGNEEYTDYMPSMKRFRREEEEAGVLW

COC(=O)CCC(=O)OC1(C)C(=O)C2=CN(CC3CC3)C(c3ccc(OC)cc3)=CC2=C(Br)C1=O (centres undefined)
IC50 (Genome polyprotein): 30.5 µM (active)
IC50 [1]: 31.7 µM (active)

CCOC(=O)N1CCN(C(S)=Nc2ccc3nc(N4CCN(CC)CC4)cc(C)c3c2)CC1
AC50 [2]: 15 µM (active)

COc1ccc([C@@H]2[C@@H]3C(=O)N(C(C)(C)C)C(=O)[C@@H]3[C@]3(CC(C)C)C(=O)N(c4cccc(Br)c4)C(=O)N23)cc1
AC50 [3]: < 0.26 µM (active)
AC50 [4]: < 0.26 µM (active)
AC50 [5]: < 0.26 µM (active)
AC50 [6]: < 0.26 µM (active)

COC/C=C/C1=CC2=CC(=O)C(C)(OC(=O)c3cnc4ccccc4n3)C(=O)C2=CN1C1CC1 (centres undefined)
IC50 [7]: 6.36 µM (active)
IC50 (Genome polyprotein): > 100 µM (active)
IC50 [8]: 16.6 µM (active)

COc1ccc(CSc2nnc3nc(O)cc(N)n23)cc1
EC50 [9]: > 67.6 µM (inactive)
IC50 [10]: > 67.6 µM (inactive)

C/C=C\C=C/C(=O)Nc1cccc(C2=NOC3(C2)C[C@@H](C(N)=O)N(C(=O)COc2ccc(Cl)cc2)C3)c1 (some centres undefined)
IC50 [11]: 10.7 µM (active)
IC50 [12]: 17.3 µM (active)

CCN(CC)CCNC(=O)c1cn(CC)c2ccc(S(=O)(=O)N3CCc4ccccc4C3)cc2c1=O
AC50 [13]: 2.88 µM (active)
IC50 [14]: 11.2 µM (active)

O=C(c1ccc([N+](=O)[O-])cc1)N1CCOCC1
EC50 [9]: > 67.4 µM (inactive)
IC50 [10]: > 67.4 µM (inactive)

COc1cc(C(=O)N2Cc3cc4ccccc4nc3C2C)cc(OC)c1OC (centres undefined)
AC50 [13]: 2.01 µM (active)

CC(=O)N(C[C@H]1N[C@H](CO)[C@@H]1c1ccc(-c2ccccc2)cc1)C(C)C
AC50 [15]: 23.3 µM (active)

COc1ccc(OCCNc2c([N+](=O)[O-])c(=O)oc3ccccc23)cc1
IC50 [1]: 4.61 µM (active)

Cc1[nH]cnc1CN1CCc2c(c3ccccc3n2C)C1=O [ALOSETRON HYDROCHLORIDE]
IC50 [7]: 7.1 µM (active)
AC50 (Caspase-6): 11.5 µM (active)
IC50 [8]: 18.2 µM (active)

CN(C)CCCN1c2ccccc2Sc2ccc(Cl)cc21 [CHLORPROMAZINE HYDROCHLORIDE]
AC50 [2]: < 25.3 µM (active)
AC50 [16]: 1.01 µM (active)
CC50 [17]: 26 µM (active)
EC50 [18]: > 20 µM (not active)
EC50 [19]: > 20 µM (not active)
